Laboratory results reported in patent US7569695B2, “Dyes for the detection or quantification of desirable target molecules” (Enzo Life Sciences, Inc., priority 2005, dated 2009).

Experiments:
[1] = tested on: 78 bp amplicon from the anti-sense C construct; experiment: Amplification of nucleic acids in the presence of dye using a standard PCR machine (Example 34); type: biochemical; details: for amplicon synthesis (gel analysis, FIG. 2): 20 cycles
Procedure: The experiment shown in Example 33 was repeated using a standard PCR machine for synthesis to see if the effects observed in Example 33 was dependent upon the rapid heating and cooling steps used in the Light Cycler.
A master mixture was made up of: • 500 µl of 2× PCR mix described in example 33 • 20 µl of 25 mM MgCl2 • 175 µl of DEPC treated H2O • 10 ul of 1 u/l ung (Epicentre) • 10 µl of 10 mg/ml BSA (New England Biolabs, Beverly, Mass.) • 10 l Taq polymease (Perkin Elmer)+10 µl of TaqStart (Clontech) PCR conditions were 2.5 µl of target template+2.0 l of dye was added to 15.5 µl of Master mixture incubated at 45° C. for 10 minutes and then amplified using cycles of: • a) 94° C. for 30 seconds • b) 65° C. for 30 seconds • c) 72° C. for 1 minute
A duplicate set of samples was amplified with one set being taken out after 20 cycles of amplification and the second set undergoing 40 cycles. […] The other effect previously observed was also seen, i.e. non-target amplicon synthesis seen in the no Dye reaction (lane 1) was reduced with the 1:200 dilution of SYBR Green and the 1:10 dilution of Dye 109 again repeating the results of Example 33.

[2] = tested on: 78 bp amplicon from the anti-sense C construct; experiment: Amplification of nucleic acids on the Light Cycler in the presence of dye (Example 33); type: biochemical
Procedure: A target template was amplified on the Light Cycler (Roche) in the presence of various amounts of Dye 109 from Example 14. As a control, various amounts of SYBR Green (Molecular Probes, Eugene, Oreg.) were also included. The template was a 1:500 dilution of a 78 bp amplicon made in a previous reaction from the anti-sense C construct described in Liu et al. 1997 (J. Virol. 71: 4079-4085). A 2×PCR mix was made up of 20 mM Tris pH 8.3, 50 mM KCl, 4 mM MgCl2, 0.4 mM dCTP, 0.4 mM dGTP, 0.4 mM dATP, 0.8 mM dUTP, […] and […].
The Forward Primer sequence is comprised of 20 nucleotides: 5′ […] 3′ (SEQ ID NO: 1). It is an artificial sequence comprising a fusion of human Ul and HIV sequences. Bases 1-7 (CATGATC) of the first sequence are derived from plasmid pHSD-4 and comprise sequences from the human Ul gene. Bases […] (GATCCGGATGGGAGGTG) of the second sequence are derived from a region of the BAL strain of HIV containing the Tat/Rev splice acceptor site.
The Reverse Primer sequence is comprised of 22 nucleotides: 5′[…] (SEQ ID NO: 2). It is an artificial sequence comprising a fusion of human Ul and HIV sequences. Bases 1-11 (GCACATCCGGA) of the first sequence are derived from plasmid pHSD-4 and comprise sequences from the human Ul gene. Bases […] (GATCCGGATGGGAGGTG) of the second sequence are derived from a region of the BAL strain of HIV containing the Tat/Rev splice acceptor site.
The 78 bp amplicon synthesized with Forward Primer (SEQ ID NO: 1) and Reverse Primer (SEQ ID NO: 2) has the following sequence: 5′ […] 3′ (SEQ ID NO: 3). It is an artificial sequence comprising a fusion of human Ul and HIV sequences. Bases 1-11 (GCACATCCGGA) and 68-78 (TCCGGATGTGC) are derived from plasmid pHSD-4 and comprise sequences from the human Ul gene. Bases […] are derived from a region of the BAL strain of HIV containing the Tat/Rev splice acceptor site.
A master mixture was made up of: • 350 µl of 2×PCR mix described above • 14 µl of 25 mM MgCl2 • 122.5 µl of DEPC treated H2O • 14 ul of 1 u/l ung (Epicentre) • 7 µl of 10 mg/ml BSA (New England Biolabs, Beverly, Mass.) • 7 l Taq polymease (Perkin Elmer)+7 µl of TaqStart (Clontech) • 2.5 µl of target template+2.0 l of various dilutions of dyes were added to 15.5 µl of Master mixture, incubated at 45° C. for 10 minutes and then amplified by: • 1) Melting • 2 minutes @ 95° C. • 2) Cycling • a) Denaturation step: 0 seconds @ 95° C. • b) Annealing step: 5 seconds @ 69° C. for first cycle; subsequent cycles were each reduced by 0.5° C. until 65° C. was reached and all annealing steps in further cycles were carried out at this temperature • c) Extension step: 5 seconds @ 72° C. • 3) After completion of 56 cycles, all samples were maintained at 4° C. until analyzed.
After the amplification reactions were finished, the samples were analyzed by gel electrophoresis. For SYBR Green, the recommended reaction concentration is 1:10,000. As such, the amplification products shown in lanes 5 and 6 using 2 l of […] dilution in a 20 l reaction (final=1:8,000) is approximately representative of the product from the standard procedure. For Dye 109, the reactions are listed in terms of dilutions of a stock of Dye 109 with an OD reading of 200 taken at 495 nm. […] However, when lower dilutions of the dyes were added there was no inhibition of the process.

[3] = 1:200 dilution of SYBR Green, lane 7

CCCN(CCCN(C)C)c1cc(/C=C2/Sc3ccccc3N2C)c2ccccc2[n+]1-c1ccccc1 [SYBR Green, reference compound]
amplicon synthesis (gel analysis, FIG. 2) ([1]; 1:200 dilution of SYBR Green, lanes 5 and 6): a single discrete band
amplicon synthesis (gel analysis, FIG. 2) ([1]; all other SYBR Green dilutions): no synthesis was evident
non-target amplicon synthesis compared to the no Dye reaction ([1]; 40 cycles, 1:200 dilution of SYBR Green): reduced
amplification (gel analysis, FIG. 1) ([2]; 1:20 dilution of SYBR Green, 56 cycles): strong inhibition of amplification
synthesis of non-target derived amplicons [2, 3]: elimination or suppression of the synthesis of non-target derived amplicons
synthesis of target derived amplicons compared to the reaction without any dye [2, 3]: enhancement of overall synthesis of target derived amplicons
